Reference: PubChem BioAssay AID1963862 (Molecular Pharmacology Branch, DTP, NCI, 2024)

Tested on: KRAS patient-derived spheroids with HUVEC/MSC, viability
Experiment: Anticancer human tumor 941728-121-R-J1-PDC patient-derived lung adenocarcinoma cell line growth inhibition [KRAS2]
Settings: for IC50: curve of first compound; for viability, T/C: stronger effect = lower value
Method in brief: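 Combination screen of spheroid viability in tumor-cell co-cultures with endothelial (HUVEC) and mesenchymal stem cell stroma. Each agent was tested in half-log dilutions, topping at clinical Cmax or at 10 microM without a known Cmax.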

[1] = second compound 0.0316 µM, first compound 0.0316 µM
[2] = second compound 0.0316 µM, first compound 0.1 µM
[3] = second compound 0.0316 µM, first compound 0.316 µM
[4] = second compound 0.0316 µM, first compound 1 µM
[5] = second compound 0.0316 µM, first compound 3.16 µM
[6] = second compound 0.0316 µM, first compound 10 µM
[7] = second compound 0.1 µM, first compound 0.0316 µM
[8] = second compound 0.1 µM, first compound 0.1 µM
[9] = second compound 0.1 µM, first compound 0.316 µM
[10] = second compound 0.1 µM, first compound 1 µM
[11] = second compound 0.1 µM, first compound 3.16 µM
[12] = second compound 0.1 µM, first compound 10 µM
[13] = second compound 0.316 µM, first compound 0.0316 µM
[14] = second compound 0.316 µM, first compound 0.1 µM
[15] = second compound 0.316 µM, first compound 0.316 µM
[16] = second compound 0.316 µM, first compound 1 µM
[17] = second compound 0.316 µM, first compound 3.16 µM
[18] = second compound 0.316 µM, first compound 10 µM
[19] = second compound 1 µM, first compound 0.0316 µM
[20] = second compound 1 µM, first compound 0.1 µM
[21] = second compound 1 µM, first compound 0.316 µM
[22] = second compound 1 µM, first compound 1 µM
[23] = second compound 1 µM, first compound 3.16 µM
[24] = second compound 1 µM, first compound 10 µM
[25] = second compound 3.16 µM, first compound 0.0316 µM
[26] = second compound 3.16 µM, first compound 0.1 µM
[27] = second compound 3.16 µM, first compound 0.316 µM
[28] = second compound 3.16 µM, first compound 1 µM
[29] = second compound 3.16 µM, first compound 3.16 µM
[30] = second compound 3.16 µM, first compound 10 µM
[31] = second compound 0.0316 µM, first compound 0.01 µM
[32] = second compound 0.1 µM, first compound 0.01 µM
[33] = second compound 0.316 µM, first compound 0.01 µM
[34] = second compound 1 µM, first compound 0.01 µM
[35] = second compound 3.16 µM, first compound 0.01 µM
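Note: spheroids exposed to agents for seven days before readout.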

CC(C)NCC(C(=O)N1CCN(c2ncnc3c2C(C)CC3O)CC1)c1ccc(Cl)cc1 (stereo not given) + C=CC(=O)N1CCN(c2nc(OCC3CCCN3C)nc3c2CCN(c2cccc4cccc(C)c24)C3)CC1CC#N
IC50 (second compound 0.0316 µM): < 31.6 nM | IC50 (second compound 0.1 µM): < 31.6 nM | IC50 (second compound 0.316 µM): < 31.6 nM | IC50 (second compound 1 µM): < 31.6 nM | IC50 (second compound 3.16 µM): < 31.6 nM | viability, T/C [1]: 29.1% | viability, T/C [2]: 29.5% | viability, T/C [3]: 23.4% | viability, T/C [4]: 23.5% | viability, T/C [5]: 18% | viability, T/C [6]: 7.87% | viability, T/C [7]: 27.3% | viability, T/C [8]: 30% | viability, T/C [9]: 22.8% | viability, T/C [10]: 19.5% | viability, T/C [11]: 14.5% | viability, T/C [12]: 7.59% | viability, T/C [13]: 26.8% | viability, T/C [14]: 26.6% | viability, T/C [15]: 26.5% | viability, T/C [16]: 18.9% | viability, T/C [17]: 15.7% | viability, T/C [18]: 8.89% | viability, T/C [19]: 27.4% | viability, T/C [20]: 24.1% | viability, T/C [21]: 18.9% | viability, T/C [22]: 15% | viability, T/C [23]: 12.5% | viability, T/C [24]: 4.68% | viability, T/C [25]: 0.13% | viability, T/C [26]: 0.12% | viability, T/C [27]: 0.12% | viability, T/C [28]: 0.15% | viability, T/C [29]: 0.18% | viability, T/C [30]: 0.25%

CC1COCCN1c1cc(-c2ccnn2C)c2ccnc(-c3ccn[nH]3)c2n1 (stereo not given) + C=CC(=O)N1CCN(c2nc(OCC3CCCN3C)nc3c2CCN(c2cccc4cccc(C)c24)C3)CC1CC#N
IC50 (second compound 0.0316 µM): < 10 nM | IC50 (second compound 0.1 µM): < 10 nM | IC50 (second compound 0.316 µM): < 10 nM | IC50 (second compound 1 µM): < 10 nM | IC50 (second compound 3.16 µM): < 10 nM | viability, T/C [31]: 26.5% | viability, T/C [1]: 24.8% | viability, T/C [2]: 19.9% | viability, T/C [3]: 19.6% | viability, T/C [4]: 16.9% | viability, T/C [5]: 14.6% | viability, T/C [32]: 26.5% | viability, T/C [7]: 28.3% | viability, T/C [8]: 19.9% | viability, T/C [9]: 18.5% | viability, T/C [10]: 16.6% | viability, T/C [11]: 13.3% | viability, T/C [33]: 23% | viability, T/C [13]: 22.7% | viability, T/C [14]: 25.9% | viability, T/C [15]: 17.6% | viability, T/C [16]: 16.1% | viability, T/C [17]: 12.8% | viability, T/C [34]: 22.9% | viability, T/C [19]: 24.2% | viability, T/C [20]: 19% | viability, T/C [21]: 18.1% | viability, T/C [22]: 18.9% | viability, T/C [23]: 15.4% | viability, T/C [35]: 2.14% | viability, T/C [25]: 10.7% | viability, T/C [26]: 2.17% | viability, T/C [27]: 1.73% | viability, T/C [28]: 6.37% | viability, T/C [29]: 6%

CC1OCC2(CCN(c3cnc(Sc4ccnc(N)c4Cl)c(N)n3)CC2)C1N (stereo not given) + C=CC(=O)N1CCN(c2nc(OCC3CCCN3C)nc3c2CCN(c2cccc4cccc(C)c24)C3)CC1CC#N
IC50 (second compound 0.0316 µM): < 31.6 nM | IC50 (second compound 0.1 µM): < 31.6 nM | IC50 (second compound 0.316 µM): < 31.6 nM | IC50 (second compound 1 µM): < 31.6 nM | IC50 (second compound 3.16 µM): < 31.6 nM | viability, T/C [1]: 32.3% | viability, T/C [2]: 28.9% | viability, T/C [3]: 25.4% | viability, T/C [4]: 26.4% | viability, T/C [5]: 23.6% | viability, T/C [6]: 18.4% | viability, T/C [7]: 31.4% | viability, T/C [8]: 28.9% | viability, T/C [9]: 25.6% | viability, T/C [10]: 26.3% | viability, T/C [11]: 25.4% | viability, T/C [12]: 20.6% | viability, T/C [13]: 32.8% | viability, T/C [14]: 30.8% | viability, T/C [15]: 28% | viability, T/C [16]: 26.9% | viability, T/C [17]: 25.1% | viability, T/C [18]: 23.7% | viability, T/C [19]: 32.8% | viability, T/C [20]: 34.8% | viability, T/C [21]: 32.7% | viability, T/C [22]: 28.2% | viability, T/C [23]: 29.1% | viability, T/C [24]: 28.4% | viability, T/C [25]: 4.61% | viability, T/C [26]: 10.1% | viability, T/C [27]: 4.45% | viability, T/C [28]: 4.43% | viability, T/C [29]: 4.99% | viability, T/C [30]: 9.3%

CCN1CCN(Cc2ccc(Nc3ncc(F)c(-c4cc(F)c5nc(C)n(C(C)C)c5c4)n3)nc2)CC1 + C=CC(=O)N1CCN(c2nc(OCC3CCCN3C)nc3c2CCN(c2cccc4cccc(C)c24)C3)CC1CC#N
IC50 (second compound 0.0316 µM): < 3.16 nM | IC50 (second compound 0.1 µM): < 3.16 nM | IC50 (second compound 0.316 µM): < 3.16 nM | IC50 (second compound 1 µM): < 3.16 nM | IC50 (second compound 3.16 µM): < 3.16 nM | viability, T/C (second compound 0.0316 µM, first compound 0.00316 µM): 24.3% | viability, T/C [31]: 25.6% | viability, T/C [1]: 23.5% | viability, T/C [2]: 25.4% | viability, T/C [3]: 26.3% | viability, T/C [4]: 26.9% | viability, T/C (second compound 0.1 µM, first compound 0.00316 µM): 20.9% | viability, T/C [32]: 21.3% | viability, T/C [7]: 18.9% | viability, T/C [8]: 20.8% | viability, T/C [9]: 18.1% | viability, T/C [10]: 23.5% | viability, T/C (second compound 0.316 µM, first compound 0.00316 µM): 21% | viability, T/C [33]: 21.2% | viability, T/C [13]: 19.1% | viability, T/C [14]: 20.2% | viability, T/C [15]: 21.1% | viability, T/C [16]: 21.6% | viability, T/C (second compound 1 µM, first compound 0.00316 µM): 21.3% | viability, T/C [34]: 21.4% | viability, T/C [19]: 20.1% | viability, T/C [20]: 18.4% | viability, T/C [21]: 19.4% | viability, T/C [22]: 20% | viability, T/C (second compound 3.16 µM, first compound 0.00316 µM): 1.17% | viability, T/C [35]: 1.06% | viability, T/C [25]: 0.49% | viability, T/C [26]: 0.73% | viability, T/C [27]: 0.52% | viability, T/C [28]: 0.18%

CCNC(=O)CC1N=C(c2ccc(Cl)cc2)c2cc(OC)ccc2-n2c(C)nnc21 (stereo not given) + C=CC(=O)N1CCN(c2nc(OCC3CCCN3C)nc3c2CCN(c2cccc4cccc(C)c24)C3)CC1CC#N
IC50 (second compound 0.0316 µM): < 31.6 nM | IC50 (second compound 0.1 µM): < 31.6 nM | IC50 (second compound 0.316 µM): 230 nM | IC50 (second compound 1 µM): < 31.6 nM | IC50 (second compound 3.16 µM): < 31.6 nM | viability, T/C [1]: 31.2% | viability, T/C [2]: 33.5% | viability, T/C [3]: 24.4% | viability, T/C [4]: 20.3% | viability, T/C [5]: 16.1% | viability, T/C [6]: 14.9% | viability, T/C [7]: 27.5% | viability, T/C [8]: 26.7% | viability, T/C [9]: 22.2% | viability, T/C [10]: 16.4% | viability, T/C [11]: 12.3% | viability, T/C [12]: 15.4% | viability, T/C [13]: 49.5% | viability, T/C [14]: 66.1% | viability, T/C [15]: 47% | viability, T/C [16]: 39.8% | viability, T/C [17]: 33.6% | viability, T/C [18]: 33.7% | viability, T/C [19]: 27.3% | viability, T/C [20]: 28% | viability, T/C [21]: 21.1% | viability, T/C [22]: 16.2% | viability, T/C [23]: 12% | viability, T/C [24]: 10.6% | viability, T/C [25]: 1.15% | viability, T/C [26]: 1.91% | viability, T/C [27]: 0.39% | viability, T/C [28]: 1.58% | viability, T/C [29]: 0.42% | viability, T/C [30]: 0.35%

Cn1nccc1Nc1nccc(-c2cc3c(s2)C(C)(C)N(CCN2CCOCC2)C3=O)n1 + C=CC(=O)N1CCN(c2nc(OCC3CCCN3C)nc3c2CCN(c2cccc4cccc(C)c24)C3)CC1CC#N
IC50 (second compound 0.0316 µM): < 31.6 nM | IC50 (second compound 0.1 µM): < 31.6 nM | IC50 (second compound 0.316 µM): < 31.6 nM | IC50 (second compound 1 µM): < 31.6 nM | IC50 (second compound 3.16 µM): < 31.6 nM | viability, T/C [1]: 29.5% | viability, T/C [2]: 28.2% | viability, T/C [3]: 25.1% | viability, T/C [4]: 19.9% | viability, T/C [5]: 22.3% | viability, T/C [6]: 29.2% | viability, T/C [7]: 26.6% | viability, T/C [8]: 24.5% | viability, T/C [9]: 22.1% | viability, T/C [10]: 18.8% | viability, T/C [11]: 20.7% | viability, T/C [12]: 28.4% | viability, T/C [13]: 26.1% | viability, T/C [14]: 24.2% | viability, T/C [15]: 21.4% | viability, T/C [16]: 21.9% | viability, T/C [17]: 19.1% | viability, T/C [18]: 29.2% | viability, T/C [19]: 27.1% | viability, T/C [20]: 26.8% | viability, T/C [21]: 23% | viability, T/C [22]: 29.2% | viability, T/C [23]: 22.2% | viability, T/C [24]: 34.1% | viability, T/C [25]: 1.07% | viability, T/C [26]: 0.7% | viability, T/C [27]: 1.22% | viability, T/C [28]: 1.67% | viability, T/C [29]: 0.97% | viability, T/C [30]: 0.27%
